Experimental data from the supplement of paper PMC5303821, “Major sulfonate transporter Soa1 in Saccharomyces cerevisiae and considerable substrate diversity in its fungal family” (Nature Communications, 2017).

Key:
[1] = test system: Saccharomyces eubayanus_SOA2; assay: lag phase before growth; higher = slower start of growth; settings: sulfur source concentration 200 µM; S. cerevisiae S288C/BY sul1Δ sul2Δ soa1Δ with transporter ortholog inserted at SOA1 locus; sulfur-free B medium, 4% glucose, pH 6.5, sole sulfur source
[2] = test system: Metarhizium robertsii_XP_007823832; assay: maximal culture density with compound as sole sulfur source (OD600); higher = better growth; settings: S. cerevisiae S288C/BY sul1Δ sul2Δ soa1Δ with transporter ortholog inserted at SOA1 locus, sulfur-free B medium, 4% glucose, pH 6.5, sole sulfur source
[3] = test system: Aspergillus nidulans_XP_681611; assay: as above; settings: S. cerevisiae S288C/BY sul1Δ sul2Δ soa1Δ with transporter ortholog inserted at SOA1 locus, sulfur-free B medium, 4% glucose, pH 6.5, sole sulfur source
soa1 del [4] = assay: as above; settings: S. cerevisiae S288C/BY sul1Δ sul2Δ soa1Δ with transporter ortholog inserted at SOA1 locus, sulfur-free B medium, 4% glucose, pH 6.5, sole sulfur source
[5] = test system: Metarhizium robertsii_XP_007821441; assay: as above; settings: S. cerevisiae S288C/BY sul1Δ sul2Δ soa1Δ with transporter ortholog inserted at SOA1 locus, sulfur-free B medium, 4% glucose, pH 6.5, sole sulfur source
[6] = test system: Aspergillus nidulans_CBF80346; assay: as above; settings: S. cerevisiae S288C/BY sul1Δ sul2Δ soa1Δ with transporter ortholog inserted at SOA1 locus, sulfur-free B medium, 4% glucose, pH 6.5, sole sulfur source
[7] = test system: Ogataea parapolymorpha_XP_013932458; assay: as above; settings: S. cerevisiae S288C/BY sul1Δ sul2Δ soa1Δ with transporter ortholog inserted at SOA1 locus, sulfur-free B medium, 4% glucose, pH 6.5, sole sulfur source
[8] = test system: Aspergillus nidulans_XP_661733; assay: as above; settings: S. cerevisiae S288C/BY sul1Δ sul2Δ soa1Δ with transporter ortholog inserted at SOA1 locus, sulfur-free B medium, 4% glucose, pH 6.5, sole sulfur source
[9] = test system: Ogataea parapolymorpha_XP_013935289; assay: as above; settings: S. cerevisiae S288C/BY sul1Δ sul2Δ soa1Δ with transporter ortholog inserted at SOA1 locus, sulfur-free B medium, 4% glucose, pH 6.5, sole sulfur source
[10] = test system: Aspergillus nidulans (IAM 2006)_astA; assay: as above; settings: S. cerevisiae S288C/BY sul1Δ sul2Δ soa1Δ with transporter ortholog inserted at SOA1 locus, sulfur-free B medium, 4% glucose, pH 6.5, sole sulfur source
[11] = test system: Aspergillus nidulans_XP_660670; assay: as above; settings: S. cerevisiae S288C/BY sul1Δ sul2Δ soa1Δ with transporter ortholog inserted at SOA1 locus, sulfur-free B medium, 4% glucose, pH 6.5, sole sulfur source
[12] = test system: Saccharomyces eubayanus_SOA1; assay: as above; settings: S. cerevisiae S288C/BY sul1Δ sul2Δ soa1Δ with transporter ortholog inserted at SOA1 locus, sulfur-free B medium, 4% glucose, pH 6.5, sole sulfur source
[13] = test system: Aspergillus nidulans_XP_661711; assay: as above; settings: S. cerevisiae S288C/BY sul1Δ sul2Δ soa1Δ with transporter ortholog inserted at SOA1 locus, sulfur-free B medium, 4% glucose, pH 6.5, sole sulfur source
[14] = test system: Aspergillus nidulans_XP_660563; assay: as above; settings: S. cerevisiae S288C/BY sul1Δ sul2Δ soa1Δ with transporter ortholog inserted at SOA1 locus, sulfur-free B medium, 4% glucose, pH 6.5, sole sulfur source
[15] = test system: Metarhizium robertsii_XP_007823832; assay: lag phase before growth; higher = slower start of growth; settings: S. cerevisiae S288C/BY sul1Δ sul2Δ soa1Δ with transporter ortholog inserted at SOA1 locus, sulfur-free B medium, 4% glucose, pH 6.5, sole sulfur source
[16] = test system: Aspergillus nidulans (IAM 2006)_astA; assay: as above; settings: S. cerevisiae S288C/BY sul1Δ sul2Δ soa1Δ with transporter ortholog inserted at SOA1 locus, sulfur-free B medium, 4% glucose, pH 6.5, sole sulfur source
[17] = test system: Aspergillus nidulans_XP_661733; assay: as above; settings: S. cerevisiae S288C/BY sul1Δ sul2Δ soa1Δ with transporter ortholog inserted at SOA1 locus, sulfur-free B medium, 4% glucose, pH 6.5, sole sulfur source
[18] = test system: Aspergillus nidulans_XP_661711; assay: as above; settings: sulfur source concentration 200 µM; S. cerevisiae S288C/BY sul1Δ sul2Δ soa1Δ with transporter ortholog inserted at SOA1 locus; sulfur-free B medium, 4% glucose, pH 6.5, sole sulfur source
[19] = test system: Fusarium oxysporum_ENH65823; assay: as above; settings: sulfur source concentration 200 µM; S. cerevisiae S288C/BY sul1Δ sul2Δ soa1Δ with transporter ortholog inserted at SOA1 locus; sulfur-free B medium, 4% glucose, pH 6.5, sole sulfur source
[20] = test system: Aspergillus nidulans_XP_681611; assay: as above; settings: sulfur source concentration 200 µM; S. cerevisiae S288C/BY sul1Δ sul2Δ soa1Δ with transporter ortholog inserted at SOA1 locus; sulfur-free B medium, 4% glucose, pH 6.5, sole sulfur source
soa1 del [21] = assay: as above; settings: sulfur source concentration 200 µM; S. cerevisiae S288C/BY sul1Δ sul2Δ soa1Δ with transporter ortholog inserted at SOA1 locus; sulfur-free B medium, 4% glucose, pH 6.5, sole sulfur source
[22] = test system: Ogataea parapolymorpha_XP_013936897; assay: as above; settings: sulfur source concentration 200 µM; S. cerevisiae S288C/BY sul1Δ sul2Δ soa1Δ with transporter ortholog inserted at SOA1 locus; sulfur-free B medium, 4% glucose, pH 6.5, sole sulfur source
[23] = test system: Metarhizium robertsii_XP_007821441; assay: as above; settings: sulfur source concentration 200 µM; S. cerevisiae S288C/BY sul1Δ sul2Δ soa1Δ with transporter ortholog inserted at SOA1 locus; sulfur-free B medium, 4% glucose, pH 6.5, sole sulfur source
[24] = test system: Aspergillus nidulans_CBF80346; assay: as above; settings: sulfur source concentration 200 µM; S. cerevisiae S288C/BY sul1Δ sul2Δ soa1Δ with transporter ortholog inserted at SOA1 locus; sulfur-free B medium, 4% glucose, pH 6.5, sole sulfur source
[25] = test system: Ogataea parapolymorpha_XP_013932458; assay: as above; settings: sulfur source concentration 200 µM; S. cerevisiae S288C/BY sul1Δ sul2Δ soa1Δ with transporter ortholog inserted at SOA1 locus; sulfur-free B medium, 4% glucose, pH 6.5, sole sulfur source
[26] = test system: Aspergillus nidulans_CBF74694; assay: as above; settings: sulfur source concentration 200 µM; S. cerevisiae S288C/BY sul1Δ sul2Δ soa1Δ with transporter ortholog inserted at SOA1 locus; sulfur-free B medium, 4% glucose, pH 6.5, sole sulfur source
[27] = test system: Aspergillus nidulans_XP_660670; assay: as above; settings: sulfur source concentration 200 µM; S. cerevisiae S288C/BY sul1Δ sul2Δ soa1Δ with transporter ortholog inserted at SOA1 locus; sulfur-free B medium, 4% glucose, pH 6.5, sole sulfur source
[28] = test system: Aspergillus nidulans_XP_660563; assay: as above; settings: sulfur source concentration 200 µM; S. cerevisiae S288C/BY sul1Δ sul2Δ soa1Δ with transporter ortholog inserted at SOA1 locus; sulfur-free B medium, 4% glucose, pH 6.5, sole sulfur source
[29] = sulfur source concentration 200 µM
[30] = sulfur source concentration 40000 µM

Row | SMILES | lag phase before growth [1] [h] | maximal culture density [2, 29] | maximal culture density [3, 29] | maximal culture density (soa1 del [4]; [29]) | maximal culture density [5, 29] | maximal culture density [6, 29] | maximal culture density [7, 29] | maximal culture density [8, 29] | maximal culture density [9, 29] | maximal culture density [10, 29] | maximal culture density [11, 29] | maximal culture density [12, 29] | maximal culture density [13, 29] | maximal culture density [14, 29] | lag phase before growth [15, 29] [h] | lag phase before growth [16, 29] [h] | also measured
1 | CCCCS(=O)(=O)O [Butanesulfonate] | 10.1 | 0.604 | 0.368 | 0.247 | 0.246 | 0.26 | 0.274 | 0.279 | 1.6 | 0.596 | 0.267 | 1.57 | 0.267 | 0.355 |  |  | 
2 | CCS(=O)(=O)O [Ethanesulfonate] | 13.1 | 0.494 | 0.319 | 0.215 | 0.214 | 0.22 | 0.237 | 0.238 | 1.58 | 0.477 | 0.209 | 1.58 | 0.209 | 0.314 |  |  | 
3 | O=S(=O)(O)CO [Hydroxymethane sulfonate] | 23.8 | 1.5 | 0.322 | 0.212 | 1.04 | 0.208 | 0.234 | 0.267 | 1.62 | 1.6 | 0.207 | 1.59 | 0.207 | 0.318 | 4.31 | 0.457 | 
4 | N[C@@H](CS(=O)(=O)O)C(=O)O [L-cysteic acid] |  | 1.43 | 0.861 | 0.254 | 0.3 | 0.823 | 0.331 | 1.3 | 1.51 | 1.41 | 1.13 | 0.561 | 1.16 | 0.535 | 7.57 |  | lag phase before growth [17, 29]: 17.2 h; lag phase before growth [18]: 5.14 h; lag phase before growth [19]: 7.6 h
5 | CSCC[C@H](N)C(=O)O [Methionine] | 4.47 | 1.58 | 1.64 | 1.69 | 1.59 | 1.58 | 1.56 | 1.59 | 1.55 | 1.59 | 1.6 | 1.55 | 1.6 | 1.6 | 4.38 | 5.14 | lag phase before growth [20]: 3.6 h; lag phase before growth (soa1 del [21]): 4.14 h; lag phase before growth [22]: 2.97 h; lag phase before growth [23]: 4.5 h; lag phase before growth [24]: 5.16 h; lag phase before growth [25]: 3.88 h; lag phase before growth [17, 29]: 4.49 h; lag phase before growth [26]: 5.36 h; lag phase before growth [27]: 4.47 h; lag phase before growth [18]: 4.47 h; lag phase before growth [19]: 5.35 h; lag phase before growth [28]: 3.48 h
6 | CCCS(=O)(=O)O [Propanesulfonate] | 14 | 0.507 | 0.35 | 0.212 | 0.263 | 0.212 | 0.243 | 0.249 | 1.59 | 0.486 | 0.231 | 1.56 | 0.232 | 0.327 |  |  | 
7 | O=S(=O)(O)O [sulfate] |  | 1.57 | 0.294 | 0.212 | 0.215 | 0.243 | 0.281 | 0.264 | 1.58 | 1.6 | 0.223 | 0.251 | 0.224 | 0.31 | 8.36 | 6.92 | lag phase before growth [15, 30]: 11.7 h; lag phase before growth [17, 30]: 39.2 h; lag phase before growth [16, 30]: 7.29 h; maximal culture density [2, 30]: 1.63; maximal culture density [3, 30]: 0.301; maximal culture density (soa1 del [4]; [30]): 0.222; maximal culture density [5, 30]: 0.225; maximal culture density [6, 30]: 0.216; maximal culture density [7, 30]: 0.343; maximal culture density [8, 30]: 1.57; maximal culture density [9, 30]: 1.65; maximal culture density [10, 30]: 1.68; maximal culture density [11, 30]: 0.277; maximal culture density [12, 30]: 1.62; maximal culture density [13, 30]: 0.382; maximal culture density [14, 30]: 0.315
8 | O=S(O)O [sulfite] |  | 1.56 | 0.308 | 0.222 | 0.235 | 0.262 | 0.285 | 0.274 | 1.61 | 1.6 | 0.243 | 1.58 | 0.244 | 0.322 | 8.25 | 6.93 | 
